Measurements published in patent publication US4331803A, “Novel erythromycin compounds” (Taisho Pharmaceutical Co., Ltd., priority 1980, dated 1982).
Values after ≈ are worked out from the molar mass of the structure shown. Where two headings read alike, the source gives them in different places.

Experiments:
[1] = Acid stability (pH 2), remaining antibacterial activity by disc method; type: physicochemical, Staphylococcus aureus FDA 209P
Experimental: (§1) The compound of the formula(I) was treated in the Clark-Lubs's buffer solution at pH 2 for the prescribed period of time.
(§2) Thereafter, the remaining antibacterial activity was determined by a disc method, using Staphylococcus aureus FDA 209P. Erthromycin A was also tested for the control.

[2] = test system: Staphylococcus aureus FDA 209P; test: as above; type: physicochemical; settings: pH 2, Clark-Lubs's buffer, 0 min
Experimental: as §1, §2

[3] = test system: Staphylococcus aureus TPR-5; test: Antibacterial activity, agar plate dilution method (MIC); type: cell-based
Experimental: (§3) The compound of the formula(I) was tested for the antibacterial activity by the agar plate dilution method, using erythromycin A for the control.
*Strain resistant to sulfonamides and penicillins

[4] = test system: Staphylococcus aureus TPR-7; test: as above; type: cell-based
Experimental: as §3
**Strain resistant to sulfonamides and tetracyclines

[5] = test system: Staphylococcus epidermidis TPR-14; test: as above; type: cell-based
Experimental: as §3
***Strain resistant to sulfonamides, penicillins and chloramphenicol

[6] = test system: Bacillus cereus ATCC 9634; test: as above; type: cell-based
Experimental: as §3

[7] = test system: Bacillus subtilis ATCC 6633; test: as above; type: cell-based
Experimental: as §3

[8] = test system: Micrococcus luteus ATCC 9341; test: as above; type: cell-based
Experimental: as §3

[9] = test system: Staphylococcus aureus FDA 209P; test: as above; type: cell-based; settings: FDA209P, read-out: MIC value
Experimental: as §3

[10] = test system: Staphylococcus aureus Smith; test: as above; type: cell-based; settings: read-out: MIC value
Experimental: as §3

[11] = test system: Staphylococcus aureus Terashima; test: as above; type: cell-based; settings: read-out: MIC value
Experimental: as §3

[12] = test system: Staphylococcus epidermidis IID866; test: as above; type: cell-based
Experimental: as §3

[13] = test system: Streptococcus faecalis ATCC 8043; test: as above; type: cell-based; settings: Enterococcus faecalis
Experimental: as §3

[14] = test system: Staphylococcus aureus Smith No. 4; test: In vivo activity, survival of infected mice after oral administration; design: species or system male ddY mice; settings: 1 h after inoculation, 14 mice per group, 7 days
Experimental: Male ddY mice (body weight, 18-22 g; 14 mice per group) were inoculated with Staphylococcus aureus Smith No. 4. The compound of the formula(I) was administered orally one hour after the inoculation, and the number of mice surviving for seven days after the administration was noted.

[15] = cited from earlier work
[16] = TPR5, Staphylococcus aureus TPR-5, resistant to sulfonamides and penicillins, read-out: MIC value
[17] = TPR7, Staphylococcus aureus TPR-7, resistant to sulfonamides and tetracyclines, read-out: MIC value
[18] = TPR14, Staphylococcus epidermidis TPR-14, resistant to sulfonamides, penicillins and chloramphenicol, read-out: MIC value
[19] = ATCC9634, Bacillus cereus ATCC 9634, read-out: MIC value
[20] = ATCC6633, Bacillus subtilis ATCC 6633, read-out: MIC value
[21] = ATCC9341, Micrococcus luteus ATCC 9341, read-out: MIC value
[22] = Staphylococcus aureus Terashima
[23] = Staphylococcus epidermidis IID866, read-out: MIC value
[24] = ATCC8043, Streptococcus faecalis ATCC 8043, read-out: MIC value

Compound | remaining at 0.25 h ([1]; clark-lubs buffer, pH 2) [%] | remaining at 0.5 h ([1]; clark-lubs buffer, pH 2) [%] | remaining at 1 h ([1]; clark-lubs buffer, pH 2) [%] | remaining at 2 h ([1]; clark-lubs buffer, pH 2) [%] | Remaining activity [2] [%] | MIC [3, 16] [mg/L] | MIC [4, 17] [mg/L] | MIC [5, 18] [mg/L] | MIC [6, 19] [mg/L] | MIC [7, 20] [mg/L] | MIC [8, 21] [mg/L] | MIC ([9]; Staphylococcus aureus FDA 209P) [mg/L] | MIC ([10]; Staphylococcus aureus Smith) [mg/L] | MIC [11, 22] [mg/L] | The number of surviving mice ([14]; 0.40 mg/kg oral) [mice] | The number of surviving mice ([14]; 1.56 mg/kg oral) [mice] | The number of surviving mice ([14]; 6.25 mg/kg oral) [mice] | The number of surviving mice ([14]; 25 mg/kg oral) [mice] | The number of surviving mice ([14]; 100 mg/kg oral) [mice] | The number of surviving mice ([14]; 400 mg/kg oral) [mice] | other results
CC[C@H]1OC(=O)[C@H](C)[C@@H](O[C@H]2C[C@@](C)(OC)[C@@H](O)[C@H](C)O2)[C@H](C)[C@@H](O[C@@H]2O[C@H](C)C[C@H](N(C)C)[C@H]2O)[C@](C)(OC)C[C@@H](C)C(=O)[C@H](C)[C@@H](OC)[C@]1(C)O [TE-032, 6,11-di-O-methylerythromycin A] | 100 | 95 | 85 | 65 | 100 | 0.4 (≈ 0.525 µM) | 0.4 (≈ 0.525 µM) | 0.4 (≈ 0.525 µM) | 0.4 (≈ 0.525 µM) | 0.05 (≈ 0.0656 µM) | ≤ 0.05 | 0.1 (≈ 0.131 µM) | 0.1 (≈ 0.131 µM) | 0.4 (≈ 0.525 µM) | 0 | 0 | 4 | 7 | 14 | 14 | MIC [12, 23]: 0.4 mg/L (≈ 0.525 µM); MIC [13, 24]: 0.05 mg/L (≈ 0.0656 µM)
CC[C@H]1OC(=O)[C@H](C)[C@@H](O[C@H]2C[C@@](C)(OC)[C@@H](O)[C@H](C)O2)[C@H](C)[C@@H](O[C@@H]2O[C@H](C)C[C@H](N(C)C)[C@H]2O)[C@](C)(OC)C[C@@H](C)C(=O)[C@H](C)[C@@H](O)[C@]1(C)O [TE-031, 6-O-methylerythromycin A] | 100 | 95 | 80 | 65 | 100 | 0.2 (≈ 0.267 µM) | 0.2 (≈ 0.267 µM) | 0.2 (≈ 0.267 µM) | 0.2 (≈ 0.267 µM) | 0.05 (≈ 0.0668 µM) | ≤ 0.05 | 0.05 (≈ 0.0668 µM) | 0.2 (≈ 0.267 µM) | 0.2 (≈ 0.267 µM) | 0 | 1 | 3 | 13 | 14 | 14 | MIC [12, 23]: 0.2 mg/L (≈ 0.267 µM); MIC [13, 24]: 0.05 mg/L (≈ 0.0668 µM)
CC[C@H]1OC(=O)[C@H](C)[C@@H](O[C@H]2C[C@@](C)(OC)[C@@H](O)[C@H](C)O2)[C@H](C)[C@@H](O[C@@H]2O[C@H](C)C[C@H](N(C)C)[C@H]2O)[C@](C)(O)C[C@@H](C)C(=O)[C@H](C)[C@@H](O)[C@]1(C)O [Erythromycin A, erythromycin A, reference compound] |  |  |  |  | 100 |  |  |  |  |  |  |  |  |  | 0 | 0 | 0 | 1 | 11 | 14 | remaining at 0.25 h ([1]; pH 2, Clark-Lubs's buffer, 15 min, read-out: Remaining activity): 1.5%; remaining at 0.5 h ([1]; pH 2, Clark-Lubs's buffer, 30 min, read-out: Remaining activity): 0.5%; remaining at 1 h ([1]; pH 2, Clark-Lubs's buffer, 60 min, read-out: Remaining activity): 0%; remaining at 2 h ([1]; pH 2, Clark-Lubs's buffer, 120 min, read-out: Remaining activity): 0%; MIC ([3]; Staphylococcus aureus, TPR5, read-out: MIC value): 0.4 mg/L (≈ 0.545 µM); MIC ([4]; Staphylococcus aureus, TPR7, read-out: MIC value): 0.4 mg/L (≈ 0.545 µM); MIC ([5]; Staphylococcus epidermidis, TPR14, read-out: MIC value): 0.4 mg/L (≈ 0.545 µM); MIC ([6]; Bacillus cereus, ATCC9634, read-out: MIC value): 0.4 mg/L (≈ 0.545 µM); MIC ([7]; Bacillus subtilis, ATCC6633, read-out: MIC value): 0.1 mg/L (≈ 0.136 µM); MIC ([8]; Micrococcus luteus, ATCC9341, read-out: MIC value): ≤ 0.05 mg/L; MIC ([9]; Staphylococcus aureus): 0.2 mg/L (≈ 0.273 µM); MIC ([10]; Staphylococcus aureus): 0.4 mg/L (≈ 0.545 µM); MIC ([11]; Staphylococcus aureus): 0.4 mg/L (≈ 0.545 µM); MIC ([12]; Staphylococcus epidermidis, IID866, read-out: MIC value): 0.4 mg/L (≈ 0.545 µM); MIC ([13]; ATCC8043, read-out: MIC value): 0.05 mg/L (≈ 0.0681 µM); antibacterial activity after oral administration (acid in stomach) [15]: loses rapidly the antibacterial activity; blood concentration ([15]; oral): remains at a low level
